Measured values as given in US20250289994A1, “METHODS FOR IMPROVING HYDROCARBON PRODUCTION FROM A SUBTERRANEAN FORMATION” (CHEVRON U.S.A. INC., priority 2024, published 2025).

Experiment: Static partitioning test for DME in brine and oil
Type: physicochemical
Details: room temperature, >12 hours equilibration, 150 psi
Source text: To measure partitioning of the miscible solvent in contact with oil and brine for a particular chemical concentration, salinity of aqueous phase, oil type, temperature, and pressure.
Load accumulator #1 with brine and accumulator #2 with oil. Apply vacuum to sapphire cell #1 and sapphire cell #2 on the loading side of the piston. Fill the opposite side with water or lab oil. Prepare loading loop with a known volume with liquid DME at room temperature (pressure >100 psi) to ensure a target concentration of DME when injected. Connect loading loop to sapphire cell #1 (vacuum side) and to accumulator #1. Connect the opposite side of the sapphire (water side) to BPR to keep pressure inside the cell at 150 psi. Then, displace DME from the loop with brine and inject into the sapphire cell #1. Isolate and disconnect the sapphire cell #1. Then, rock the cell until liquid DME and brine get properly mixed and homogenized. Equilibrate aqueous mix for a couple of hours. Connect the accumulator #2 with the sapphire cell #2, and the sapphire cell to the BPR. Then, inject oil into the sapphire cell #2. The volume of the injected oil is the one for the desired aqueous to oil ratio (i.e. 50/50 aqueous to oil by volume). Connect the sapphire cell #1 (DME in aqueous side) to the sapphire cell #2 (oil side) and inject DME in aqueous side to cell #2. The volume of the injected aqueous phase is the one for the desired aqueous to oil ratio. The pressure inside the sapphire cell # is controlled by BPR at 150 psi. Isolate and disconnect the sapphire cell #2. Then, rock the cell until liquid aqueous and oil get properly mixed. Let the cell equilibrate for 12 hours at room temperature (˜70° F.). Prepare a solution of 1:1 by volume of deionized water and methanol. Collect a sample of aqueous phase (DME in brine) from cell #2 and mix it with methanol solution in a volumetric proportion of 1:1. Measure DME concentration in aqueous mixture from previous step via gas chromatography (GC). Then, calculate partitioning of DME in between brine and oil phase, this is the partitioning coefficient.
KDME=DME partitioning coefficient; CDME,aq=mass fraction of DME in aqueous phase at equilibrium; and CDME,oil=mass fraction of DME in oleic phase at equilibrium.
Alternatively, to measuring DME concentration via GC and after isolating and disconnecting sapphire cell #2, both aqueous phase and oleic phase could be separated, and then individually taken to a PVT cell at 1 atm and 70° F. After DME evolves from each phase as gas, amounts of evolved DME could be measured and partitioning coefficient calculated.

DME partition coefficient (0.5% DME + Methanol, Volatile Oil, salinity 115,000 ppm): 1.13
DME partition coefficient (0.5% DME, Volatile Oil, salinity 0 - DI water): 0.81
DME partition coefficient (0.5% DME, Volatile Oil, salinity 103,000 ppm): 1.15
DME partition coefficient (0.5% DME, Volatile Oil, salinity 150,000 ppm): 1.27
DME partition coefficient (0.5% DME, Volatile Oil, salinity 300,000 ppm): 1.26
DME partition coefficient (1% DME + Methanol, Black Oil, salinity 115,000 ppm): 1.87
DME partition coefficient (1% DME + Methanol, Volatile Oil, salinity 115,000 ppm): 2.4
SMILES: COC [DME, dimethyl ether]
